Assay results taken from patent US20080234232A1, “Methods and compositions for targeting AFAP” (priority 2007, published 2008).

What was measured:
[1] = target: T1, PH domain of DAPP1 (Homo sapiens, UniProt Q9UN19); test: Lipid binding assay (Far Western), GST-DAPP1; settings: 0.5 μg/ml fusion protein
T1 construct: GST-fusion proteins that expressed the PH domain of DAPP1 as a positive control; made in house; host or cells: bacteria (plasmid provided by Mark Lemmon)
T1 sequence (Q9UN19 164-259 limits assumed): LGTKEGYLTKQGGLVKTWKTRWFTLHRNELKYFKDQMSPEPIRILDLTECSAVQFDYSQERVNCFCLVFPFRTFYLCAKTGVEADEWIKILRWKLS
Experimental: (§1) FIG. 5: The phospholipid binding properties of the PH domains of AFAP-110. A) Pleckstrin homology fusion proteins, GST-PH1, GST-PH2 and GST-DAPP1, were purified from bacteria by affinity chromatography. Phospholipids were spotted onto PVDF membranes as described in the methods section. The membranes were incubated overnight with 0.5 μg/ml • GST-PH1, GST-PH2 or GST-DAPP1. Washed membranes were incubated with anti-GST antibody and exposed to film.
C) Fusion protein, GST-DAPP1, was purified from bacteria by affinity chromatography. Two-fold changes in concentration (1.6 pg-100.0 pg) of phospholipids were spotted onto PVDF membranes as described in the methods section. Membranes were incubated with 0.5 μg/ml fusion proteins. Washed membranes were probed using with anti-GST antibody.
Pleckstrin homology (PH) fusion proteins GST-PH1, GST-PH2 and GST-DAPP1, were purified from bacteria by affinity chromatography. A Far Western Blot procedure was used for detecting the fusion protein binding to nitrocellulose immobilized phospholipids (Stevenson, J. Met. al., 1998); PIP strips and PIP arrays were purchased from Echelon, Inc. Overlay assays measured the relative amounts of GST-tagged fusion protein bound to spotted phospholipids. […]

[2] = target: T2, PH1 domain of AFAP-110 (Gallus gallus, UniProt Q90738); test: Lipid binding assay (Far Western), GST-PH1; settings: 0.5 μg/ml fusion protein, lipids spotted on membrane
T2 construct: AFAP-110 contains two PH domains, one amino terminal (PH1) and the other carboxy terminal (PH2); made in house; host or cells: bacteria
Experimental: as §1
B) Pleckstrin homology fusion protein, GST-PH1, was purified from bacteria by affinity chromatography. Two-fold changes in concentration (1.6 pg-100.0 pg) of phospholipids were spotted onto PVDF membranes as described in the methods section. The PIP arrays were incubated with 0.5 μg/ml fusion protein and probed with anti-GST antibody.
Pleckstrin homology (PH) fusion proteins GST-PH1, GST-PH2 and GST-DAPP1, were purified from bacteria by affinity chromatography. A Far Western Blot procedure was used for detecting the fusion protein binding to nitrocellulose immobilized phospholipids (Stevenson, J. Met. al., 1998); PIP strips and PIP arrays were purchased from Echelon, Inc. Overlay assays measured the relative amounts of GST-tagged fusion protein bound to spotted phospholipids. A plasmid encoding GST-DAPP1 previously shown to bind Ptdlns-3,4-P2 and Ptdlns-3,4,5-P3 (Dowler, S. et. al., 1999) was used as a control, kindly provided by Mark Lemmon (Lemmon, M. A., 2003). The membranes were wetted with methanol and then transferred to blocking solution composed of 3% BSA in TBS containing 1% Tween-20 (TBS-T) for 1 hour at 4° C. Membranes were incubated with 0.5 μg/ml each fusion proteins in TBS-T overnight at 4° C. Following incubation, membranes were rinsed three times with TBS-T, washed for 5 minutes and incubated at 4° C. for 1 hour with anti-GST antibody (1:20000 in TBS-T). Following the standard wash procedure, membranes were incubated at 4° C. for 30 minutes with peroxidase-conjugated secondary antibody (1:30000 in TBS-T). The washed membranes were incubated with chemiluminescence reagent and exposed to X-ray film.

[3] = target: T2, PH1 domain of AFAP-110; test: Lipid sedimentation assay, GST-PH1; type: binding; settings: PC vesicles with lipid 19:1 (PC:PS 7:3), 0.025 mM GST fusion protein
Experimental: E) Lipid sedimentation assay was performed using pleckstrin homology fusion protein GST-PH1 as described in the methods sections. The GST-PH1 fusion protein has the capacity to co-sediment with several lipids containing vesicles as indicated in the pellet (P). Soluble fractions (S) containing unbound GST-PH1 purified fusion proteins were resolved by SDS-PAGE and detected by Coomassie stain.
A sedimentation assay was used to detect PH domain protein association with membrane phospholipids. Phospholipid stock solutions: 1 mg/ml L-α-Ptdlns-4-P, 1.0 mg/ml 1,2-dipalmitoyl-sn-glycero-3-Ptdlns-3-P, 0.1 mg/ml 1,2-dioleoyl-sn-glycero-3-Ptdlns-3,4-P2, and 1 mg/ml L-α-Ptdlns-4,5-P2 in chloroform:methanol:water (60:30:4). However, 10 mg/ml L-α-phosphatidylinositol, 0.1 mg/ml L-α Ptdlns-3-P, 0.2 mg/ml L-α-Ptdlns-3,4,5-P3, 10 mg/ml L-α-phosphatidylserine, and 10 mg/ml L-α-phosphatidylcholine in chloroform neat. All lipid stocks were purged with dry N2 and stored −20° C. The lipid vesicles were prepared as follows utilizing a sonication method. Briefly, in a heavy walled tube, PC and another stock phospholipid (e.g. Ptdlns, Ptdlns-3-P, Ptdlns-4-P, Ptdlns-3,4-P2, Ptdlns-3,5-P2, Ptdlns-3,4,5-P3, or PC) were combined in a 19:1 molar ratio; PC and PS were combined in a 7:3 molar ratio. Lipids were dried with a stream of N2 and traces of solvent were removed by vacuum and resuspended to 5.2 mM PC in buffer B [10 mM HEPES, pH 7.5, 50 mM KCl, 0.5 mM EGTA, and 1.0 mM MgCl2]. The resulting phospholipid sheets were sonicated to form vesicles. Samples were prepared to contain 1.7 mM vesicle PC and 0.025 mM recombinant GST fusion protein (DAPP1 or PH1) in buffer B. Samples were incubated 60 min and centrifuged with a Beckman Airfuge for 15 min at room temperature. 16% of the supernatant and 100% of the pellet from each sample was used for analysis by Laemmli method of SDS polyacrylamide gel electrophoresis. The gels were stained with SYPRO Orange or Coomassie Blue to visualize the proteins.

T2 sequence (Q90738 153-249 limits assumed): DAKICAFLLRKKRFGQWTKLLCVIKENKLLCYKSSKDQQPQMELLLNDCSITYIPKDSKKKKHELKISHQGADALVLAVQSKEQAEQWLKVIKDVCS

## Phosphoinositol-3,4,5-trisphosphate [Ptdlns-3,4,5-P3]
[1]
  binding of GST-DAPP1 to immobilized phospholipid (far western): binds well
[2]
  binding of GST-PH1 to immobilized phospholipid (far western): binding the weakest
[3]
  binding (co-sedimentation) of GST-PH1 to lipid vesicles containing the lipid: low
